Assay results: US10900927B2, “Graphene field effect transistors for detection of ions” (UNIVERSITY OF SOUTH CAROLINA, priority 2018, dated 2021)

Experiments:
[1] = K+ versus Na+; cited from earlier work
[2] = tested on: Ca2+-activated non-selective cation (NSC) channels on the T84 cells; experiment: K+ efflux of T84 cells activated with A23187, measured with the GISFET; format: cell-based, human; parameters: dose or concentration left out as unconfirmed; details: T84 cells in normal saline solution
Source text: In Example 2, GISFETs as contemplated by the present invention were fabricated as described in Example 1 and were then used to measure the K^+ efflux of human colonic epithelial cells. FIG. 9 is a schematic illustrating the use of the graphene ion sensitive field effect transistor (GISFET) of the present invention to determine the K^+ efflux from cells.
Specifically, human colonic T84 epithelial cells were used to investigate performance of the GISFET of the present invention. The Ca^2+-activated non-selective cation (NSC) channels on the T84 cells were activated with Ca^2+ ionophore A23187 ([…]), and then the corresponding K^+ efflux was detected and quantified by measuring the extracellular K+ ion concentration.
First, and referring to FIG. 9, cells 150 were plated on 25 millimeter diameter graphene-coated glass coverslips 148 and placed underneath of a specially designed mold 146 in a well plate 144. […]
Referring now to FIG. 10, after about 2 minutes of stabilization of the GISFET 101 in the buffer solution 152 in the well plate 144, the A23187 activating chemical was added to the well plate 144, which caused a consistent increase in current for about 20 minutes thereafter. […] By calculating the K^+ concentration based on the calibration data, the K^+ concentration could then be determined to be about 50 uM. […]

Row | SMILES | selectivity to K+ ions over Na+ ions (weaker valinomycin-Na+ complex) [1] | duration of consistent increase in GISFET current after addition [2] | extracellular K+ concentration from K+ efflux after activation ([2]; calculated from GISFET calibration data)
1 | CC(C)[C@@H]1NC(=O)[C@H](C)OC(=O)[C@@H](C(C)C)NC(=O)[C@@H](C(C)C)OC(=O)[C@H](C(C)C)NC(=O)[C@H](C)OC(=O)[C@@H](C(C)C)NC(=O)[C@@H](C(C)C)OC(=O)[C@H](C(C)C)NC(=O)[C@H](C)OC(=O)[C@@H](C(C)C)NC(=O)[C@@H](C(C)C)OC1=O [valinomycin] | 10,000 fold |  | 
2 | CNc1ccc2oc(C[C@H]3O[C@@]4(CC[C@H]3C)O[C@H]([C@H](C)C(=O)c3ccc[nH]3)[C@H](C)C[C@H]4C)nc2c1C(=O)O [A23187] |  | about 20 minutes | about 50 uM
